Source: patent publication US10772909B2, “System and method for insulin-mimetic of cartilage, bone, or osteochondral repair and piezoelectric composite scaffold” (New Jersey Institute of Technology, priority 2016, dated 2020)

Key:
[1] = test system: SOX-9; test: Chondrogenesis culture: gene expression by RT-PCR, SOX-9; type: cell-based, human
Protocol: (§1) Chondrogenesis Culture. Cryopreserved MSCs were thawed and expanded in GM until 70-80% confluent. Cells were trypsininzed and then seeded on 6 mm diameter scaffold disks at 1.76×10^5 cells/cm^2 and cultured for 28 days in GM, chondrogenic induction medium (CCM), or CCM without insulin, according to previously published methods. CCM consisted of DMEM high glucose containing 4 mM L-glutamine (Invitrogen, Grand Island, N.Y., USA), 0.1 μM dexamethasone (Sigma-Aldrich), 0.17 mM ascorbic acid-2-phosphate (Wako Chemicals, Richmond, Va., USA), 1% ITS+(6.25 µg/mL insulin, 6.25 µg/mL transferrin, 6.25 ng/mL selenous acid, 5.35 μg/ml linoleic acid and 1.25 mg of bovine serum albumin) Premix Culture Supplement (Corning, Corning, N.Y., USA), 1× antibiotic-antimycotic, 1 mM sodium pyruvate (Sigma-Aldrich), 0.35 mM proline (Sigma-Aldrich), and 10 ng/mL recombinant human transforming growth factor-beta3 (TGF-β3, ProSpec, Israel). CCM without insulin consisted of CCM where the 1% ITS+Premix Culture Supplement was substituted with 1% stock solution (6.25 μg/ml transferrin and 6.25 ng/ml selenous acid, 5.35 μg/ml lionleic acid (Sigma-Aldrich) and 1.25 mg of bovine serum albumin (Fisher Scientific). Na2WO4 was added to all media leading to final Na2WO4 concentrations of 0, 0.01, 0.1 and 1 mM. Samples were harvested and analyzed for sulfated glycosaminoglycans (sGAG), cell number and gene expression at day 14 and 28 and for collagen type II and immunostaining at day 28.
(§2) Gene expression was evaluated using quantitative reverse transcription (RT)-polymerase chain reaction (PCR) analysis. RT-PCR was performed with RNeasy Micro Kit and SYBR Green RT-PCR Kit (Qiagen; Valencia, Calif., USA) using the MX4000 detection system (Stratagene) according to the manufacturer's protocol. Relative gene expression of SOX-9, aggrecan and collagen type II were determined. Samples (n=4 per group) were harvested and digested using Lysis Buffer. RNA was isolated from the samples using RNeasy Micro Kit (Qiagen) including DNA digestion step (RNase Free DNase Set; Qiagen). The RNA quantity and integrity were determined by measuring the absorbance at 260 nm and the absorbance ratio of 260 nm/280 nm, respectively, using Nanodrop™ Spectrophotometer (Thermo Fisher Scientific). Quantitative PCR analysis was performed using QuantiTect SYBR Green supermix including the QuantiTect Primer Assays. The reverse transcription step ran for 30 minutes at 50° C., 15 minutes at 95° C. of PCR activation followed by forty cycle of amplification consisting of 15 s denaturation at 94° C., 30 s of annealing at 55° C., and 30 s of extension at 72° C. A melting curve analysis of the RT-PCR product was included for each reaction. Samples were analyzed in triplicate and the value of each gene was normalized to the reference gene ribosomal protein, large, P0 (RPLP0) for the same sample (ΔCT). Primers were purchased from Qiagen (Hs_ACAN, QT00001365; Hs_SOX9, QT00001498; Hs_COL2A1, QT00049518; and Hs_RPLP0 QT00075012).

[2] = test system: collagen type II; test: Chondrogenesis culture: gene expression by RT-PCR, collagen type II; type: cell-based, human; settings: for collagen type II gene expression vs 0 and 1 mM groups: CCM without insulin, days 14 and 28; for collagen type II gene expression vs 0 mM: day 14
Protocol: as §1, §2

[Na+].[Na+].[O]=[W](=[O])([O-])[O-] [Na2WO4, sodium tungstate]
SOX-9 gene expression vs 0 mM ([1]; 0.01 mM Na2WO4, CCM without insulin, day 14): significantly higher | SOX-9 gene expression vs 0 mM ([1]; 0.01 mM Na2WO4, CCM, day 28, p<0.05): significantly higher SOX-9 | SOX-9 gene expression ([1]; 0.1 mM Na2WO4, CCM, day 14, p<0.05): highest SOX-9 gene expression | SOX-9 gene expression vs 0 mM ([1]; 0.1 mM Na2WO4, CCM, day 28, p<0.01): significantly higher SOX-9 | SOX-9 gene expression ([1]; 1 mM Na2WO4, CCM): lowest gene expression | SOX-9 gene expression (chondrogenic genes) ([1]; GM with Na2WO4): no significant upregulation of chondrogenic genes | collagen type II gene expression, change between days 14 and 28 ([2]; 0.01 mM Na2WO4, CCM): significant increase in collagen type II expression | collagen type II gene expression vs 0 and 1 mM groups ([2]; 0.01 mM Na2WO4): significantly higher | collagen type II gene expression vs 0 mM ([2]; 0.01 mM Na2WO4, CCM, p<0.001): significantly higher collagen type II | collagen type II gene expression vs all groups ([2]; 0.01 mM Na2WO4, CCM, day 28, p<0.001): significantly higher | collagen type II gene expression vs 0 and 1 mM groups ([2]; 0.1 mM Na2WO4): significantly higher | collagen type II gene expression vs 0 mM ([2]; 0.1 mM Na2WO4, CCM, p<0.001): significantly higher collagen type II | collagen type II gene expression ([2]; 1 mM Na2WO4, CCM): lowest gene expression | collagen type II gene expression (chondrogenic genes) ([2]; GM with Na2WO4): no significant upregulation of chondrogenic genes
